Reference: US4935238A, “Antibiotic A 40926 complex and its pure factors PA, PB, A, B and B0” (Gruppo Lepetit, S.p.A., priority 1984, dated 1990)
Values after ≈ are worked out from the molar mass of the structure shown.

Legend:
Experiment in all cases: Bactericidal effect on N. gonorrhoeae strains
Assay type in all cases: cell-based
N. gonorrhoeae L 1596 = settings: Neisseria gonorrhoeae, L1596, clinical isolate, spectinomycin-resistant
[1] = tested on: N. gonorrhoeae L 1007 (CTC 6820); settings: Neisseria gonorrhoeae
N. gonorrhoeae L 1601 = settings: Neisseria gonorrhoeae, L1601, clinical isolate, penicillin-resistant
N. gonorrhoeae L 1004 = settings: Neisseria gonorrhoeae, L1004, clinical isolate
N. gonorrhoeae L 1605 = settings: Neisseria gonorrhoeae, L1605, clinical isolate, penicillin-resistant
N. gonorrhoeae L 1001 = settings: Neisseria gonorrhoeae, L1001, clinical isolate
[2] = 24 h, 99.9% of initial inoculum killed

`CN[C@@H]1[C@H](O)[C@H](NC)[C@H]2O[C@@]3(O)C(=O)C[C@@H](C)O[C@H]3O[C@@H]2[C@H]1O` [Spectinomycin] was tested, and the MBC (N. gonorrhoeae L 1596; [2]) was > 128 µg/mL, the MIC (N. gonorrhoeae L 1596; 48 h) was > 128 µg/mL and the MIC ([1]; 48 h) was 16 µg/mL (≈ 48.1 µM). The MBC [1, 2] was 16 µg/mL (≈ 48.1 µM), the MBC (N. gonorrhoeae L 1601; [2]) was 16 µg/mL (≈ 48.1 µM) and the MIC (N. gonorrhoeae L 1601; 48 h) was 16 µg/mL (≈ 48.1 µM). The MBC (N. gonorrhoeae L 1004; [2]) was 32 µg/mL (≈ 96.3 µM), the MIC (N. gonorrhoeae L 1004; 48 h) was 16 µg/mL (≈ 48.1 µM) and the MBC (N. gonorrhoeae L 1605; [2]) was 32 µg/mL (≈ 96.3 µM). For the same molecule, the MIC (N. gonorrhoeae L 1605; 48 h) was 32 µg/mL (≈ 96.3 µM), the MBC (N. gonorrhoeae L 1001; [2]) was 32 µg/mL (≈ 96.3 µM) and the MIC (N. gonorrhoeae L 1001; 48 h) was 16 µg/mL (≈ 48.1 µM).
